We go through ten compounds from patent US9242999B2, “Cephem compound having pyridinium group” (priority 2011, dated 2016).

≈ marks a conversion by molar mass, not a printed value.

What all share (type): cell-based
The test system of one assay is A. baumannii SR27323. Briefly: MIC, CLSI broth microdilution, cation-adjusted Mueller Hinton broth with human apo-transferrin (Test Example 1). The conditions noted are these: inoculum 5×10^5 cfu/mL; for MIC: Acinetobacter baumannii, SR27323, Table 2, OXA-23, OXA-58 carbapenemase producing strain, read-out: Minimum Inhibitory Concentration (MIC) A. baumannii SR27323; for Minimum Inhibitory Concentration (MIC) A. baumannii SR27323: Table 2, OXA-23, OXA-58 carbapenemase producing strain. On the procedure:
(§1) Measurement of Minimum Inhibitory Concentration (MIC: μg/mL) was conducted according to CLSI (Clinical and Laboratory Standards Institute) method, and the amount of bacteria for inoculation was 5×10^5 cfu/mL, and cation-adjusted Mueller Hinton broth containing human apo-transferrin was used as a test medium, and the experiment was conducted using broth microdilution method. The bacteria used are listed below.

For another assay, the system named is E. coli ATCCBAA-199. The description is as above. The conditions noted are these: inoculum 5×10^5 cfu/mL; for MIC: Escherichia coli, ATCCBAA199, Table 2, SHV-3 ESBL producing strain, read-out: Minimum Inhibitory Concentration (MIC) E. coli ATCC BAA-199. Here is the method: as §1
The next assay concerns P. aeruginosa SR24. The assay is described as above. The conditions noted are these: no enzyme, inoculum 5×10^5 cfu/mL; for MIC: Pseudomonas aeruginosa, SR24, Table 2, ceftazidime resistance strain, read-out: Minimum Inhibitory Concentration (MIC) P. aeruginosa SR24; for Minimum Inhibitory Concentration (MIC) P. aeruginosa SR24: Table 2, ceftazidime resistance strain. Here is the method: as §1

Assay [1] concerns E. coli ATCCBAA-200. The assay is described as above. The following applies: inoculum 5×10^5 cfu/mL; for MIC: Escherichia coli, ATCCBAA200, Table 2, SHV-4 ESBL producing strain, read-out: Minimum Inhibitory Concentration (MIC) E. coli ATCC BAA-200. Here is the method: as §1
The test system of assay [2] is K. pneumoniae ATCCBAA-1705. Described as above. The following applies: inoculum 5×10^5 cfu/mL; for MIC: Klebsiella pneumoniae, ATCCBAA1705, Table 2, KPC-2 carbapenemase producing strain, read-out: Minimum Inhibitory Concentration (MIC) K. pneumoniae ATCC BAA-1705. Here is the method:
as §1

Another assay deals with P. aeruginosa SR27060. The assay is described as above. The conditions noted are these: inoculum 5×10^5 cfu/mL; for MIC: Pseudomonas aeruginosa, SR27060, Table 2, IMP-1 MBL producing strain (carbapenem resistance strain), read-out: Minimum Inhibitory Concentration (MIC) P. aeruginosa SR27060. On the procedure: as §1
The next assay deals with E. cloacae NCTC13464. As to the kind of experiment: MIC, CLSI broth microdilution, cation-adjusted iso-sensitest broth with human apo transferrin (Test Example 2). The conditions noted are these: Enterobacter cloacae, Table 5, CTX-M group 9 ESBL producing strain, inoculum 5×10^5 cfu/mL, read-out: Minimum Inhibitory Concentration (MIC) E. cloacae NCTC 13464. Here is the method:
(§2) Measurement of Minimum Inhibitory Concentration (MIC: μg/mL) was conducted according to CLSI (Clinical and Laboratory Standards Institute) method, and the amount of bacteria for inoculation was 5×10^5 cfu/mL, and cation-adjusted iso-sensitest broth containing human apo transferrin was used as a test medium, and the experiment was conducted using broth microdilution method. The bacteria used are listed below.

The subject of assay [3] is E. coli ATCCBAA-200. The assay is described as above. The conditions noted are these: Escherichia coli, ATCCBAA200, Table 5, SHV-4 ESBL producing strain, inoculum 5×10^5 cfu/mL, read-out: Minimum Inhibitory Concentration (MIC) E. coli ATCC BAA-200. On the procedure:
as §2

For the next assay, the system named is E. coli ATCCBAA-196. The description is as above. The following applies: Escherichia coli, ATCCBAA196, Table 5, TEM-10 ESBL producing strain, inoculum 5×10^5 cfu/mL, read-out: Minimum Inhibitory Concentration (MIC) E. coli ATCC BAA-196. On the procedure:
as §2

Turning to `CC(C)(O/N=C(\C(=O)N[C@@H]1C(=O)N2C(c3nnn[n-]3)=C(CSc3cc[n+](-c4ccc(O)c(O)c4)cc3)CS[C@H]12)c1csc(N)n1)C(=O)O` [Compound I-6], the MIC with A. baumannii SR27323 was 0.125 µg/mL (≈ 0.176 µM); in the assay with E. coli ATCCBAA-199, no more than 0.031 µg/mL; with P. aeruginosa SR24, 0.063 µg/mL (≈ 0.0886 µM); with E. coli ATCCBAA-200 [1], no more than 0.031 µg/mL; in [2], no more than 0.031 µg/mL.

In the case of `CC(C)(O/N=C(\C(=O)N[C@@H]1C(=O)N2C(c3nnn[n-]3)=C(CSc3cc[n+](CC(=O)c4ccc(O)c(O)c4)cc3)CS[C@H]12)c1nsc(N)n1)C(=O)O` [Compound I-4], the MIC with A. baumannii SR27323 was 1 µg/mL (≈ 1.33 µM); in the assay with E. coli ATCCBAA-199 it was 0.125 µg/mL (≈ 0.166 µM); in the assay with P. aeruginosa SR24 it was 0.125 µg/mL (≈ 0.166 µM); in the assay with E. coli ATCCBAA-200 [1], 0.25 µg/mL (≈ 0.332 µM); in assay [2], no more than 0.031 µg/mL; in the assay with P. aeruginosa SR27060 it was 2 µg/mL (≈ 2.65 µM).

With `CC(C)(O/N=C(\C(=O)N[C@@H]1C(=O)N2C(c3nnn[n-]3)=C(CSc3cc[n+](Cc4ccc(O)c(O)c4)cc3)CS[C@H]12)c1csc(N)n1)C(=O)O` [Compound I-2], the “Minimum Inhibitory Concentration (MIC) A. baumannii SR27323” value in the assay on A. baumannii SR27323 is given as “≦0.031 μg/ml”. For the same compound, the MIC in the assay on E. coli ATCCBAA-199 was no more than 0.031 µg/mL; in the assay with E. coli ATCCBAA-200 [1], no more than 0.031 µg/mL; in assay [2], no more than 0.031 µg/mL; in the assay on P. aeruginosa SR27060, 0.5 µg/mL (≈ 0.69 µM). Further, the “Minimum Inhibitory Concentration (MIC) P. aeruginosa SR24” value in the assay with P. aeruginosa SR24 was found to be 0.063 µg/mL.

Regarding `CC(C)(O/N=C(\C(=O)N[C@@H]1C(=O)N2C(c3nnn[n-]3)=C(CSc3cc[n+](-c4ccc(O)c(O)c4Cl)cc3)CS[C@H]12)c1nsc(N)n1)C(=O)[O-].[Na+]` [Compound I-17], the MIC came out at 0.063 µg/mL in the assay on E. cloacae NCTC13464, 0.125 µg/mL in the assay with E. coli ATCCBAA-200 [3] and 0.125 µg/mL in the assay with E. coli ATCCBAA-196.

Consider `CC(C)(O/N=C(\C(=O)N[C@@H]1C(=O)N2C(c3nnn[n-]3)=C(CSc3cc[n+](CC(=O)c4ccc(O)c(O)c4)cc3)C[S+]([O-])[C@H]12)c1csc(N)n1)C(=O)O` (some centres unmarked) [Compound I-7], for which the MIC is 2 µg/mL (≈ 2.6 µM) in the assay with A. baumannii SR27323; no more than 0.031 µg/mL in the assay with E. coli ATCCBAA-199; 0.5 µg/mL (≈ 0.65 µM) with P. aeruginosa SR24; no more than 0.031 µg/mL in the assay with E. coli ATCCBAA-200 [1]; no more than 0.031 µg/mL in assay [2]; 4 µg/mL (≈ 5.2 µM) in the assay with P. aeruginosa SR27060.

In the case of `CC(C)(O/N=C(\C(=O)N[C@@H]1C(=O)N2C(C(=O)[O-])=C(CSc3cc[n+](CC(=O)c4ccc(O)c(O)c4)cc3)CS[C@H]12)c1csc(N)n1)C(=O)O` [Comparative Compound 1, reference compound], the MIC is 0.5 µg/mL (≈ 0.686 µM) in the assay with A. baumannii SR27323; 1 µg/mL (≈ 1.37 µM) with E. coli ATCCBAA-199; 0.25 µg/mL (≈ 0.343 µM) with P. aeruginosa SR24; 2 µg/mL (≈ 2.74 µM) in the assay with E. coli ATCCBAA-200 [1]; 0.25 µg/mL (≈ 0.343 µM) in [2]; greater than 32 µg/mL in the assay on P. aeruginosa SR27060.

`C[C@H](O/N=C(\C(=O)N[C@@H]1C(=O)N2C(c3nnn[n-]3)=C(CSc3cc[n+](CC(=O)c4ccc(O)c(O)c4)cc3)CS[C@H]12)c1nc(N)sc1Cl)C(=O)O` [Compound I-5]: the MIC with A. baumannii SR27323 is 0.5 µg/mL (≈ 0.647 µM); in the assay on E. coli ATCCBAA-199, no more than 0.031 µg/mL; in the assay on P. aeruginosa SR24, 0.125 µg/mL (≈ 0.162 µM); with E. coli ATCCBAA-200 [1], 0.063 µg/mL (≈ 0.0815 µM); in assay [2], no more than 0.031 µg/mL; in the assay with P. aeruginosa SR27060, 1 µg/mL (≈ 1.29 µM).

Turning to `C[C@H](O/N=C(\C(=O)N[C@@H]1C(=O)N2C(c3nnn[n-]3)=C(CSc3cc[n+](CC(=O)c4ccc(O)c(O)c4)cc3)CO[C@H]12)c1nc(N)sc1Cl)C(=O)O` [Compound I-8], the MIC with A. baumannii SR27323 is 2 µg/mL (≈ 2.64 µM); in the assay on E. coli ATCCBAA-199 it was 0.063 µg/mL (≈ 0.0832 µM); with P. aeruginosa SR24, 0.25 µg/mL (≈ 0.33 µM); with E. coli ATCCBAA-200 [1] it was 0.25 µg/mL (≈ 0.33 µM); in assay [2], no more than 0.031 µg/mL; in the assay with P. aeruginosa SR27060, 16 µg/mL (≈ 21.1 µM).

With `CC(C)(O/N=C(\C(=O)N[C@@H]1C(=O)N2C(c3nnn[n-]3)=C(CSc3cc[n+](CC(=O)c4ccc(O)c(O)c4Cl)cc3)CS[C@H]12)c1nc(N)sc1Cl)C(=O)[O-].[Na+]` [Compound I-15], the values for the MIC with E. cloacae NCTC13464, with E. coli ATCCBAA-200 [3] and with E. coli ATCCBAA-196 were 0.125 µg/mL, no more than 0.031 µg/mL and no more than 0.031 µg/mL, respectively.

For the compound `CC(C)(O/N=C(\C(=O)N[C@@H]1C(=O)N2C(c3nnn[n-]3)=C(CSc3cc[n+](Cc4ccc(O)c(O)c4)cc3)CS[C@H]12)c1csc(N)n1)C(=O)O` [Compound I-1], the “Minimum Inhibitory Concentration (MIC) A. baumannii SR27323” value with A. baumannii SR27323 turned out to be 1 µg/mL. Besides, the “Minimum Inhibitory Concentration (MIC) E. coli ATCC BAA-199” value in the assay on E. coli ATCCBAA-199 (Table 2, SHV-3 ESBL producing strain) was “≦0.031 μg/ml”. In the assay with P. aeruginosa SR24, the “Minimum Inhibitory Concentration (MIC) P. aeruginosa SR24” value stood at 0.25 µg/mL. Besides, in the assay on E. coli ATCCBAA-200 [1] (Table 2, SHV-4 ESBL producing strain), the “Minimum Inhibitory Concentration (MIC) E. coli ATCC BAA-200” value is “≦0.031 μg/ml”. Further, in assay [2] (Table 2, KPC-2 carbapenemase producing strain), the “Minimum Inhibitory Concentration (MIC) K. pneumoniae ATCC BAA-1705” value is on record as “≦0.031 μg/ml”. Also, in the assay on P. aeruginosa SR27060 (Table 2, IMP-1 MBL producing strain (carbapenem resistance strain)), the “Minimum Inhibitory Concentration (MIC) P. aeruginosa SR27060” value was found to be 1. μg/ml.
